Reference: patent US9938269B2, “Inhibitor compounds of phosphodiesterase type 10A” (ABBVIE INC., priority 2011, dated 2018)
Counter-ions that a name gives are not always drawn.

Key:
[1] = Determination of the microsomal half-life, rat liver microsomes; conditions: for microsomal CLint at 0.5 μM: rat, liver microsomes, pH 7.4
[2] = Determination of the microsomal half-life, human liver microsomes; conditions: for microsomal CLint at 0.5 μM: human, liver microsomes, pH 7.4
PDE10A (human) = target: T1, PDE10A (human) (Homo sapiens, UniProt Q9Y233); test: Measurement of PDE activity (HTRF cAMP kit), human PDE10A; format: biochemical; conditions: PDE enzymatic reaction, substrate 20 nM for PDE10, 60 minutes at 29 C
T1 construct: purchased BPS Bioscience
In short: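 Recombinant human PDE10A (10–250 pM range across PDEs) with 20 nM cAMP substrate in 20 mM Tris-HCl pH 7.5, 10 mM MgCl2, 0.1% BSA, compound pre-mixed with enzyme. Ran 60 min at 29 °C. Remaining cAMP read by HTRF, converted to % of uninhibited activity, and IC50 fitted.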

T1 sequence (Q9Y233 whole entry): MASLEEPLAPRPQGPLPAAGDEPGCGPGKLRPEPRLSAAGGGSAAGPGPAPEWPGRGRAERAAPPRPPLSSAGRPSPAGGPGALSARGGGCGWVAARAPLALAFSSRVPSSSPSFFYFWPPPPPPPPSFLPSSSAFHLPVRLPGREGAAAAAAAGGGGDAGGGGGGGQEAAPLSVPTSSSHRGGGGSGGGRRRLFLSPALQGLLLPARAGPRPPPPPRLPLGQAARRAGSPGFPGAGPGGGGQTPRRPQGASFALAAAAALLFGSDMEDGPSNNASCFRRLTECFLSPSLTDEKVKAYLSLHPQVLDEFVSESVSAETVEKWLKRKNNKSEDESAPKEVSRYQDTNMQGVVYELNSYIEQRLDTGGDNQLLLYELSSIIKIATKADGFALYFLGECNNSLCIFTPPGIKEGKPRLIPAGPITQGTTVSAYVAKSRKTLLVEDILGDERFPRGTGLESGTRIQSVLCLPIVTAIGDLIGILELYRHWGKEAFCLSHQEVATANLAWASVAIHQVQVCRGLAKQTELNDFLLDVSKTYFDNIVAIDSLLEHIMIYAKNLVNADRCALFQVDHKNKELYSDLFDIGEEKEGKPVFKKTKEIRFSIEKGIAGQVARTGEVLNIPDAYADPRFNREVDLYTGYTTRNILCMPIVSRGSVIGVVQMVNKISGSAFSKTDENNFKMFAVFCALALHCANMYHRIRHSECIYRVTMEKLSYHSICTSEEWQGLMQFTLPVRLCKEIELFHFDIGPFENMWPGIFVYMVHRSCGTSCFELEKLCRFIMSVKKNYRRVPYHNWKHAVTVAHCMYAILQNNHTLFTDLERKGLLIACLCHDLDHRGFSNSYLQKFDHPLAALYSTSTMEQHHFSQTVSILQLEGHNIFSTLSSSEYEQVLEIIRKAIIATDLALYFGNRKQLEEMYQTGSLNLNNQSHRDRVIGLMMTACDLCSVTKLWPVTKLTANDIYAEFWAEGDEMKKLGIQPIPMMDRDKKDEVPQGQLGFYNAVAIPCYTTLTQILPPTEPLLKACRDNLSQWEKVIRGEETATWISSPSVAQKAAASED

Row | SMILES | IC50 (PDE10A (human)) | also measured
1 | CN1CCN(C2CCN(c3cccc4c3C(=O)N(CCc3ccc5ccccc5n3)C4)CC2)CC1 [Example 100, 7-[4-(4-Methyl-piperazin-1-yl)-piperidin-1-yl]-2-(2-quinolin-2-yl-ethyl)-2,3-dihydro-isoindol-1-one trifluoroacetate] | – | microsomal CLint at 0.5 μM [1]: < 100 µL/min/mg; microsomal CLint at 0.5 μM [2]: 100 to 220 µL/min/mg
2 | O=C1c2c(cccc2-c2ccncc2)CN1CCc1cccc(-c2ncccn2)c1 [Example 121, 7-(Pyridin-4-yl)-2-(3-(pyrimidin-2-yl)phenethyl)isoindolin-1-one] | 200 to 500 nM | microsomal CLint at 0.5 μM [2]: 100 to 220 µL/min/mg
3 | O=C1c2c(cccc2-c2ccncc2)CN1CCc1ccnc(-c2ccccc2)n1 [Example 122, (2-(2-Phenylpyrimidin-4-yl)ethyl)-7-(pyridin-4-yl)isoindolin-1-one] | – | Rat mCl (mikrosomal clearance) ([1]; rat liver microsomes, 0.5 μM test substance, 0.25 mg microsomal protein, pH 7.4, 37° C., NADPH): + (+: 100-220 μl min^−1 mg^−1); Human mCl (mikrosomal clearance) ([2]; human liver microsomes, 0.5 μM test substance, 0.25 mg microsomal protein, pH 7.4, 37° C., NADPH): ++ (++: 100 μl min^−1 mg^−1)
4 | O=C1c2c(cccc2OCc2ccncc2)CN1CCc1ccc2ccccc2n1 [Example 128, 7-(Pyridin-4-ylmethoxy)-2-(2-quinolin-2-yl-ethyl)-2,3-dihydro-isoindol-1-one] | – | microsomal CLint at 0.5 μM [1]: 100 to 220 µL/min/mg; microsomal CLint at 0.5 μM [2]: > 220 µL/min/mg
5 | O=C1c2c(cccc2OCc2ccccn2)CN1CCc1ccc2ccccc2n1 [Example 129, 7-(Pyridin-2-ylmethoxy)-2-(2-quinolin-2-yl-ethyl)-2,3-dihydro-isoindol-1-one] | – | microsomal CLint at 0.5 μM [1]: < 100 µL/min/mg; microsomal CLint at 0.5 μM [2]: 100 to 220 µL/min/mg
6 | CN1CCN(c2cccc3c2CN(CCc2ccc4ccccc4n2)C3=O)CC1 [Example 144, 4-(4-Methyl-piperazin-1-yl)-2-(2-quinolin-2-yl-ethyl)-2,3-dihydro-isoindol-1-one] | – | microsomal CLint at 0.5 μM [1]: 100 to 220 µL/min/mg; microsomal CLint at 0.5 μM [2]: < 100 µL/min/mg
7 | C=C(C)c1ccc(Oc2ccc(-c3cccc4c3C(=O)N(CCc3ccc5ccccc5n3)C4)cc2)cc1 [Example 146, 7-[4-(4-Isopropenyl-phenoxy)-phenyl]-2-(2-quinolin-2-yl-ethyl)-2,3-dihydro-isoindol-1-one] | – | microsomal CLint at 0.5 μM [1]: 100 to 220 µL/min/mg; microsomal CLint at 0.5 μM [2]: > 220 µL/min/mg
8 | Cn1ccc(-c2cccc3c2CN(CCc2ccc4ccccc4n2)C3=O)c1 [Example 352, 4-(1-Methyl-1H-pyrrol-3-yl)-2-(2-quinolin-2-yl-ethyl)-2,3-dihydro-isoindol-1-one] | 100 to 200 nM | –
9 | O=C1c2cccc(-c3ccnc(C4CC4)c3)c2CN1CCc1ccc2ccccc2n1 [Example 354, 4-(2-Cyclopropyl-pyridin-4-yl)-2-(2-quinolin-2-yl-ethyl)-2,3-dihydro-isoindol-1-one] | 200 to 500 nM | –
10 | O=C1c2cccc(-c3cscn3)c2CN1CCc1ccc2ccccc2n1 [Example 355, 2-(2-Quinolin-2-yl-ethyl)-4-thiazol-4-yl-2,3-dihydro-isoindol-1-one] | < 100 nM | –
11 | COc1cncc(-c2cccc3c2CN(CCc2ccc4ccccc4n2)C3=O)n1 [Example 356, 4-(6-Methoxy-pyrazin-2-yl)-2-(2-quinolin-2-yl-ethyl)-2,3-dihydro-isoindol-1-one] | 200 to 500 nM | –
12 | O=C1c2c(cccc2-c2ccn[nH]2)CN1CCc1ccc2sccc2n1 [Example 560, 7-(1H-Pyrazol-5-yl)-2-(2-thieno[3,2-b]pyridin-5-ylethyl)isoindolin-1-one] | 100 to 200 nM | –
13 | COc1cnccc1-c1cccc2c1CN(CCc1ccc3ccccc3n1)C2=O [compound 388, 4-(3-Methoxy-4-pyridyl)-2-[2-(2-quinolyl)ethyl]isoindolin-1-one] | 100 to 200 nM | –
14 | COc1cnccc1-c1ccnc2c1C(=O)N(CCc1ccc3ccccc3n1)C2 [compound 389, 4-(3-Methoxy-4-pyridyl)-6-[2-(2-quinolyl)ethyl]-7H-pyrrolo[3,4-b]pyridin-5-one] | 100 to 200 nM | –
15 | Cc1ccc2ccc(CCN3Cc4nccc(N5CCOCC5)c4C3=O)nc2c1 [compound 392, 6-[2-(7-Methyl-2-quinolyl)ethyl]-4-morpholino-7H-pyrrolo[3,4-b]pyridin-5-one] | < 100 nM | –
16 | O=C1c2c(N3CCOCC3)ccnc2CN1CCc1cc2ccccc2o1 [compound 397, 6-[2-(Benzofuran-2-yl)ethyl]-4-morpholino-7H-pyrrolo[3,4-b]pyridin-5-one] | – | microsomal CLint at 0.5 μM [1]: 100 to 220 µL/min/mg
17 | Cc1ccc2nc(CCN3Cc4nccc(-c5ccncc5)c4C3=O)ccc2c1 [compound 406, 6-[2-(6-Methyl-2-quinolyl)ethyl]-4-(4-pyridyl)-7H-pyrrolo[3,4-b]pyridin-5-one] | < 100 nM | –
18 | CCc1csc(CCN2Cc3nccc(-c4ccncc4)c3C2=O)n1 [compound 407, 6-[2-(4-Ethylthiazol-2-yl)ethyl]-4-(4-pyridyl)-7H-pyrrolo[3,4-b]pyridin-5-one] | < 100 nM | –
19 | O=C1c2c(-c3ccncc3F)ccnc2CN1CCc1ccc2ccccc2n1 [compound 412, 4-(3-Fluoro-pyridin-4-yl)-6-(2-quinolin-2-yl-ethyl)-6,7-dihydro-pyrrolo[3,4-b]pyridin-5-one] | < 100 nM | –

Row | SMILES | IC50 (PDE10A (human)) | also measured
20 | O=C1c2c(-c3ccncc3)ccnc2CN1CCc1cn2ccsc2n1 [compound 423, 6-(2-Imidazo[2,1-b]thiazol-6-ylethyl)-4-(4-pyridyl)-7H-pyrrolo[3,4-b]pyridin-5-one trifluoroacetate] | < 100 nM | –
21 | O=C1c2c(N3CCC(C(F)F)C3)ccnc2CN1CCc1ccc2ccccc2n1 (stereo not drawn) [compound 434] | < 100 nM | –
22 | O=C1c2c(N3CCC(CF)C3)ccnc2CN1CCc1ccc2ccccc2n1 (stereo not drawn) [compound 435, 4-[3-(Fluoromethyl)pyrrolidin-1-yl]-6-[2-(2-quinolyl)ethyl]-7H-pyrrolo[3,4-b]pyridin-5-one] | < 100 nM | –
23 | O=C1c2c(NC3COC3)ccc(F)c2CN1CCc1ccc2ccccc2n1 [compound 437, 4-Fluoro-7-(oxetan-3-ylamino)-2-[2-(2-quinolyl)ethyl]isoindolin-1-one] | < 100 nM | –
24 | O=C1c2c(-c3cccnc3)ccc(F)c2CN1CCc1ccc2ccccc2n1 [compound 438, 4-fluoro-7-(3-pyridyl)-2-[2-(2-quinolyl)ethyl]isoindolin-1-one] | < 100 nM | –
25 | Cn1nccc1-c1ccc(F)c2c1C(=O)N(CCc1ccc3ccccc3n1)C2 [compound 439, 4-Fluoro-7-(2-methylpyrazol-3-yl)-2-[2-(2-quinolyl)ethyl]isoindolin-1-one] | < 100 nM | –
26 | O=C1c2c(N3CCOCC3)ccc(F)c2CN1CCc1ccc2ccccc2n1 [compound 440, 4-Fluoro-7-morpholino-2-[2-(2-quinolyl)ethyl]isoindolin-1-one] | < 100 nM | –
27 | COc1ccc(-c2ccc(F)c3c2C(=O)N(CCc2ccc4ccccc4n2)C3)cc1 [compound 441, 4-Fluoro-7-(4-methoxyphenyl)-2-[2-(2-quinolyl)ethyl]isoindolin-1-one] | 100 to 200 nM | –
28 | O=C1c2c(-c3cn[nH]c3)ccc(F)c2CN1CCc1ccc2ccccc2n1 [compound 442, 4-Fluoro-7-(1H-pyrazol-4-yl)-2-[2-(2-quinolyl)ethyl]isoindolin-1-one trifluoroacetate] | < 100 nM | –
29 | O=C1c2c(-c3cncnc3)ccc(F)c2CN1CCc1ccc2ccccc2n1 [compound 443, 4-Fluoro-7-pyrimidin-5-yl-2-[2-(2-quinolyl)ethyl]isoindolin-1-one trifluoroacetate] | < 100 nM | –
30 | O=C1c2c(-c3ccc(F)cc3)ccc(F)c2CN1CCc1ccc2ccccc2n1 [compound 444, 4-Fluoro-7-(4-fluorophenyl)-2-[2-(2-quinolyl)ethyl]isoindolin-1-one] | < 100 nM | –
31 | COc1ccc(-c2ccnc3c2CN(CCc2ccc4ccccc4n2)C3=O)cc1 [compound 458, 4-(4-Methoxy-phenyl)-6-(2-quinolin-2-yl-ethyl)-5,6-dihydro-pyrrolo[3,4-b]pyridin-7-one trifluoroacetate] | < 100 nM | –
32 | O=C1c2c(-c3ccncc3)ccnc2CN1CCc1cc(-c2ccncc2)c2ccccc2n1 [compound 484, 4-(4-Pyridyl)-6-[2-[4-(4-pyridyl)-2-quinolyl]ethyl]-7H-pyrrolo[3,4-b]pyridin-5-one] | < 100 nM | –
33 | CCc1ccc(CCN2Cc3nccc(N4CCOCC4)c3C2=O)nc1 [compound 499, 6-[2-(5-Ethyl-2-pyridyl)ethyl]-4-morpholino-7H-pyrrolo[3,4-b]pyridin-5-one trifluoroacetate] | < 100 nM | –
34 | O=C1c2c(-c3ccncc3)ccnc2CN1CCc1nc(C2CC2)cs1 [compound 517, 6-[2-(4-Cyclopropylthiazol-2-yl)ethyl]-4-(4-pyridyl)-7H-pyrrolo[3,4-b]pyridin-5-one] | < 100 nM | –
35 | O=C1c2c(-c3ccsc3)ccnc2CN1CCc1cn2ccccc2n1 [compound 523, 6-(2-Imidazo[1,2-a]pyridin-2-ylethyl)-4-(3-thienyl)-7H-pyrrolo[3,4-b]pyridin-5-one] | < 100 nM | –
36 | O=C1c2c(N3CCC(F)(F)CC3)ccnc2CN1CCc1nc2ccccc2s1 [compound 527, 6-[2-(1,3-Benzothiazol-2-yl)ethyl]-4-(4,4-difluoro-1-piperidyl)-7H-pyrrolo[3,4-b]pyridin-5-one trifluoroacetate] | < 100 nM | –
37 | O=C1c2c(OCCF)ccc(-c3ccncc3)c2C(=O)N1CCc1ccc2ccccc2n1 [compound 532, 4-(2-Fluoro-ethoxy)-7-pyridin-4-yl-2-(2-quinolin-2-yl-ethyl)-isoindole-1,3-dione] | < 100 nM | –
38 | O=C1c2c(-c3ccncc3)ccc(OCCF)c2CN1CCc1ccc2ccccc2n1 [compound 533, 4-(2-Fluoro-ethoxy)-7-pyridin-4-yl-2-(2-quinolin-2-yl-ethyl)-2,3-dihydro-isoindol-1-one] | < 100 nM | –
